Reference: the supplement of paper PMC8671470

Key:
Settings in all cases: 72 h
[1] = system: MV4-11
Procedure, shortened: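 Fifteen myeloid leukaemia cell lines were seeded in RPMI 1640 at a density titrated to the linear growth range. Each line went into 384-well plates with compounds acoustically pre-printed at five tenfold doses from 1 to 10,000 nM, in duplicate, and was incubated for 72 h at 37 °C with 5% CO2. Luminescent ATP viability was normalised to vehicle and to a positive control at 10 µM. The IC50 came from four-parameter log-logistic dose–response fits.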

[2] = system: HL-60; experiment: cell viability (% survival relative to DMSO control); higher = less cytotoxic
Procedure, shortened: (§1)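 For each screen, HL-60 cells in RPMI 1640 with 10% FBS carried either DMSO or 100 nM of one of three metabolic inhibitors while the full library was applied at five tenfold concentrations, 1–10,000 nM, in duplicate. Plates were 384-well and were kept 72 h at 37 °C, 5% CO2. Viability, measured by CellTiter-Glo, was normalised to wells with DMSO and with 10 μM proteasome inhibitor. Where area under the curve appears, it was fitted by four-parameter log-logistic models in drc and PharmacoGx.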

[3] = system: BV-173; experiment: cell viability (% survival relative to DMSO control, bortezomib = 0%); higher = less cytotoxic
Procedure, shortened: (§2)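 Reported values are percent survival from duplicate wells, averaged. Fifteen myeloid leukaemia cell lines were treated in 384-well plates with compounds at 1, 10, 100, 1000 or 10000 nM for 72 h at 37 °C in 5% CO2. Signals from CellTiter-Glo luminescence were scaled with vehicle as 100% and a 10 µM positive control as 0%.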

[4] = system: HEL; experiment: as above
Procedure, shortened: as §2

[5] = system: HL-60; experiment: as above
Procedure, shortened: as §2

[6] = system: K-562; experiment: as above
Procedure, shortened: as §2

[7] = system: KCL-22; experiment: as above
Procedure, shortened: as §2

[8] = system: KG-1; experiment: as above
Procedure, shortened: as §2

[9] = system: KU-812; experiment: as above
Procedure, shortened: as §2

[10] = system: LAMA-84; experiment: as above
Procedure, shortened: as §2

[11] = system: ML-2; experiment: as above
Procedure, shortened: as §2

[12] = system: MOLM-13; experiment: as above
Procedure, shortened: as §2

[13] = system: MV4-11; experiment: as above
Procedure, shortened: as §2

[14] = system: Mono-Mac-6; experiment: as above
Procedure, shortened: as §2

[15] = system: NOMO-1; experiment: as above
Procedure, shortened: as §2

[16] = system: SHI-1; experiment: as above
Procedure, shortened: as §2

[17] = system: THP-1; experiment: as above
Procedure, shortened: as §2

[18] = system: HL-60; experiment: area under dose-response curve (viability, 1 nM-10 uM) (fraction (0-1)); higher = more sensitive
Procedure, shortened: as §1

O=C1c2cc([N+](=O)[O-])ccc2-n2c1nc1ccccc1c2=O [GNF-Pf-3777]
Settings	IC50 (cell viability) [nM]
[1]	1500

cell viability [%], [2]
Settings	0.001 µM	0.01 µM	0.1 µM	1 µM	10 µM
co-treatment: AZD3965 100 nM	103	100	105	89	2.3
co-treatment: DMSO vehicle	94.3	102	103	91.6	12.6
co-treatment: GSK2194069 100 nM	103	98.4	88.8	80.8	8.8
co-treatment: pictilisib 100 nM	95.5	101.2	92.2	78.63	6.29

Settings	area under dose-response curve, co-treatment: AZD3965 100 nM	area under dose-response curve, co-treatment: DMSO vehicle	area under dose-response curve, co-treatment: GSK2194069 100 nM	area under dose-response curve, co-treatment: pictilisib 100 nM	cell viability, 1 nM [%]	cell viability, 10 nM [%]	cell viability, 100 nM [%]	cell viability, 1000 nM [%]	cell viability, 10000 nM [%]
[3]	–	–	–	–	95.9	104	89.5	66.4	4.9
[4]	–	–	–	–	98.5	105	105	53.1	13.6
[5]	–	–	–	–	89.7	92.2	105	59.1	0.853
[6]	–	–	–	–	102	100	103	56.2	4.1
[7]	–	–	–	–	87.9	115	102	37	21.2
[8]	–	–	–	–	99.6	95.6	110	67.1	27.6
[9]	–	–	–	–	91.6	91.1	87.9	53.4	6.51
[10]	–	–	–	–	97.5	102	96.1	71.3	32.8
[11]	–	–	–	–	96.7	99	97.8	94.1	28.8
[12]	–	–	–	–	99.5	122	108	75.8	18
[13]	–	–	–	–	106	101	97.1	67.5	2.64
[14]	–	–	–	–	86.3	104	90.9	66.3	6.53
[15]	–	–	–	–	92.3	99.9	90.3	86.7	31.8
[16]	–	–	–	–	99.9	104	92	66.6	16.5
[17]	–	–	–	–	103	92.2	85.6	62.3	30.9
[18]	0.15	0.122	0.154	0.165	–	–	–	–	–

COc1cc(/C=C/C(=O)N2CCC=CC2=O)cc(OC)c1OC [Piperlongumine]
Settings	IC50 (cell viability) [nM]
[1]	959

cell viability [%], [2]
Settings	0.001 µM	0.01 µM	0.1 µM	1 µM	10 µM
co-treatment: AZD3965 100 nM	101	104	102	99.9	-0.192
co-treatment: DMSO vehicle	98.08	100.5	102.8	97.9	-0.533
co-treatment: GSK2194069 100 nM	101	102	104.6	87.9	-0.0941
co-treatment: pictilisib 100 nM	97.3	94.8	94.9	83.8	3.95

Settings	area under dose-response curve, co-treatment: AZD3965 100 nM	area under dose-response curve, co-treatment: DMSO vehicle	area under dose-response curve, co-treatment: GSK2194069 100 nM	area under dose-response curve, co-treatment: pictilisib 100 nM	cell viability, 1 nM [%]	cell viability, 10 nM [%]	cell viability, 100 nM [%]	cell viability, 1000 nM [%]	cell viability, 10000 nM [%]
[3]	–	–	–	–	93.3	99.9	101	71.4	-0.383
[4]	–	–	–	–	90.1	111	103	97.5	-0.0957
[5]	–	–	–	–	92.7	100	102	85.7	0.441
[6]	–	–	–	–	102	91.5	106	77.3	0.672
[7]	–	–	–	–	92.3	109	90.3	93.5	1.29
[8]	–	–	–	–	98.4	102	93.1	98.3	4.3
[9]	–	–	–	–	94.6	110	94.9	92.2	3.51
[10]	–	–	–	–	104	106	104	98.8	2.16
[11]	–	–	–	–	102	100	92.8	72.6	-0.133
[12]	–	–	–	–	98.6	87.6	99.5	75.7	0.668
[13]	–	–	–	–	95	90.4	89.7	44.4	-0.271
[14]	–	–	–	–	94.3	107	98.7	86.5	1.58
[15]	–	–	–	–	94.9	103	105	100	0.949
[16]	–	–	–	–	100	98.3	106	89	0.583
[17]	–	–	–	–	103	93.9	101	88	-0.152
[18]	0.131	0.134	0.156	0.153	–	–	–	–	–
